How the values were obtained:
[1] = test system: human PBMCs; experiment: Human PBMC - tumor cell co-culture assay (IL-2 by HTRF); format: cell-based; settings: anti-CD3 and anti-CD28 stimulation, 48 hours
Protocol: 4T1, a Nectin-4 negative murine mammary gland epithelial cancer cell (4T1 Nectin-4 −ve; 4T1-Parental) and its genetically modified version expressing murine Nectin-4 on the cell surface (4T1 Nectin-4 +ve; clone 4T1-D02) were cultured to 80% confluency in vitro in RPMI1640 medium supplemented with 10% heat-inactivated FBS, 1× Penicillin/Streptomycin, 1× L-Glutamine, 20 mM HEPES and 1×NEAA (RPMI working medium). Tumor cells were trypsinized and washed two times at 1500 rpm for 5 minutes in RPMI1640 working medium prewarmed to 37° C. Four thousand tumor cells in 25 μl were plated per well in a sterile 384 well cell culture plate. Frozen human PBMCs were thawed and washed one time at 1250 rpm for 5 minutes in prewarmed RPMI1640 working medium. 20000 viable PBMCs in 50 μl RPMI1640 working medium supplemented with 250 ng/ml (2× concentration) of human anti-CD3 (clone OKT3) and 500 ng/ml (2× concentration) of human anti-CD28 (clone CD28.2) were added per respective wells containing tumor cells in 25 μl medium to obtain a […] ratio for tumor cells and PBMCs. Test compounds in DMSO were diluted in RPMI1640 working medium. An equivalent amount of DMSO was added to assay controls. […] Culture supernatant was collected at 48 hours post-treatment, and IL-2 concentrations were measured using HTRF assays (CIS Bio). Data were analyzed using GraphPad Prism.

[2] = target: T1, OX40 (Homo sapiens, UniProt P43489); experiment: Promega OX40 cell-activity assay in co-culture with tumor cells (Nectin-4 positive 4T1-D02); format: cell-based; settings: co-culture with Nectin-4 positive 4T1-D02 cells; compared to OX40L and non-binding control BCY12968
T1 construct: host or cells: OX40 Jurkat cells (NF-kB luciferase reporter)
T1 sequence (P43489 29-277): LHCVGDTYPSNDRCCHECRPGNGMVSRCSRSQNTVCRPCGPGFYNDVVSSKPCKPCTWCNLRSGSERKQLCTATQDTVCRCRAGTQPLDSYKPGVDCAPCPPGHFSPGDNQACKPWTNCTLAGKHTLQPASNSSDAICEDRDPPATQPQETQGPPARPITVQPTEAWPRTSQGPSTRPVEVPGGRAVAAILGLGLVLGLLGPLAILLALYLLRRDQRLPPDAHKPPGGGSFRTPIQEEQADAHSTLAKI
Protocol: Promega have developed an OX40 cell-activity assay that uses NF-κB luciferase luminescence as a read-out of OX40 activation in Jurkat cells (Promega CS197704). On the day of the experiment, prepare medium by thawing FBS and adding 5% FBS to RPMI-1640. Thaw OX40 Jurkat cells in the water-bath and then add 500 μl cells to 11.5 ml pre-warmed 5 FBS RPMI-1640 medium. Add 55 μl cells/well to white cell culture plates. Harvest tumor cells from culture. 4T1 is a Nectin-4 negative murine mammary gland epithelial cancer cell and it was genetically modified to express murine Nectin-4 on the cell surface (4T1 Nectin-4 positive; clone 4T1-D02). Tumor cells were cultured to 80% confluency in vitro in RPMI1640 medium supplemented with 10% heat-inactivated FBS, 1× Penicillin/Streptomycin, 1×L-Glutamine, 20 mM HEPES and 1×NEAA (RPMI working medium). Tumor cells were trypsinized and washed two times at 1500 rpm for 5 minutes in RPMI1640 working medium prewarmed to 37° C. Count cells and resuspend at 2,000,000 cells/mL in R5 media (for 10,000 cells/well). Add 5 μL of tumour cells per well.
Proceed to dilute agonists at concentration giving the maximum fold induction and then titrate down the amount in a sterile 96 well-plate. Prepare enough reagent for duplicate samples and then perform ⅓ dilution series or 1/10 dilution series. Include positive control OX40L trimer (AcroBiosystems, R&D systems) and negative control monomeric or non-binding peptides. Add 20 μl of agonist as duplicate samples or 5% FBS RPMI-1640 alone as background control.
Co-incubate cells together with agonists for 6 hours at 37° C., 5% CO2. After 6 hours, thaw Bio-Glo™ and develop the assay at room-temperature. Add 80 μl Bio-Glo™ per well and incubate 5-10 min. Read luciferase signal on CLAIROStar plate-reader using the MARS program and normalize the fold induction relative to background (medium alone). Analyse data by transforming the data to x=log (X), then plot log (agonist) vs. response variable slope (4 parameters) to calculate EC50 values.

Compound	IL-2 levels ([1]; 4T1 cells without Nectin-4 expression)	production of the cytokine IL-2 by human PBMCs ([1]; Nectin-4 expressing 4T1 cells)	OX40 agonism in co-culture [2]
CSCC[C@@H]1NC(=O)[C@@H]2CSCCC(=O)N3CN(CN(C3)C(=O)CCSC[C@H](NC(=O)CCOCCOCCOCCOCCOCCOCCOCCOCCOCCOCCOCCOCCn3cc(CCC(=O)NCCCC[C@H](NC(=O)[C@H](C)NC(=O)[C@@H]4CSCCC(=O)N5CN6CN(C5)C(=O)CCSC[C@H](NC(=O)[C@@H]5CCCN5C(=O)[C@H](CO)NC(=O)[C@H](Cc5ccc(O)cc5)NC(=O)[C@H](CC(C)C)NC(=O)[C@@H](NC(=O)[C@H](C)N)CSCCC6=O)C(=O)N[C@@H](Cc5c[nH]c6ccccc56)C(=O)N[C@@H](Cc5c[nH]cn5)C(=O)N5CCC[C@H]5C(=O)N[C@@H](CC(C)C)C(=O)N[C@@H](CC(N)=O)C(=O)N[C@@H](CC(=O)O)C(=O)N4)C(N)=O)nn3)C(=O)N3CCC[C@H]3C(=O)N[C@@H](Cc3cccc4ccccc34)C(=O)N[C@H](CC(=O)O)C(=O)N2)C(=O)CCSC[C@@H](C(N)=O)NC(=O)[C@H](Cc2c[nH]c3ccccc23)NC(=O)[C@@H]2C[C@@H](O)CN2C(=O)[C@@H]2CCCN2C(=O)[C@H]([C@@H](C)O)NC(=O)[C@H](CO)NC(=O)[C@H](Cc2c[nH]c3ccccc23)NC(=O)[C@H](CC(=O)O)NC(=O)[C@H](CCCCNC(=N)N)NC1=O [BCY12141]	comparable to the control baseline CD3+CD28 stimulation	induced the production of the cytokine IL-2	potent OX40 agonism
CSCC[C@@H]1NC(=O)[C@@H]2CSCCC(=O)N3CN(CN(C3)C(=O)CCSC[C@H](NC(=O)CCOCCOCCOCCN(CCOCCOCCOCCn3cc(CCC(=O)NCCCC[C@H](NC(=O)[C@H](C)NC(=O)[C@@H]4CSCCC(=O)N5CN6CN(C5)C(=O)CCSC[C@H](NC(=O)[C@@H]5CCCN5C(=O)[C@H](CO)NC(=O)[C@H](Cc5ccc(O)cc5)NC(=O)[C@H](CC(C)C)NC(=O)[C@@H](NC(=O)[C@H](C)N)CSCCC6=O)C(=O)N[C@@H](Cc5c[nH]c6ccccc56)C(=O)N[C@@H](Cc5c[nH]cn5)C(=O)N5CCC[C@H]5C(=O)N[C@@H](CC(C)C)C(=O)N[C@@H](CC(N)=O)C(=O)N[C@@H](CC(=O)O)C(=O)N4)C(N)=O)nn3)CCOCCOCCOCCn3cc(CCC(=O)NCCCC[C@H](NC(=O)[C@H](C)NC(=O)[C@@H]4CSCCC(=O)N5CN6CN(C5)C(=O)CCSC[C@H](NC(=O)[C@@H]5CCCN5C(=O)[C@H](CO)NC(=O)[C@H](Cc5ccc(O)cc5)NC(=O)[C@H](CC(C)C)NC(=O)[C@@H](NC(=O)[C@H](C)N)CSCCC6=O)C(=O)N[C@@H](Cc5c[nH]c6ccccc56)C(=O)N[C@@H](Cc5c[nH]cn5)C(=O)N5CCC[C@H]5C(=O)N[C@@H](CC(C)C)C(=O)N[C@@H](CC(N)=O)C(=O)N[C@@H](CC(=O)O)C(=O)N4)C(N)=O)nn3)C(=O)N3CCC[C@H]3C(=O)N[C@@H](Cc3cccc4ccccc34)C(=O)N[C@H](CC(=O)O)C(=O)N2)C(=O)CCSC[C@@H](C(N)=O)NC(=O)[C@H](Cc2c[nH]c3ccccc23)NC(=O)[C@@H]2C[C@@H](O)CN2C(=O)[C@@H]2CCCN2C(=O)[C@H]([C@@H](C)O)NC(=O)[C@H](CO)NC(=O)[C@H](Cc2c[nH]c3ccccc23)NC(=O)[C@H](CC(=O)O)NC(=O)[C@H](CCCCNC(=N)N)NC1=O [BCY12967]			potent OX40 agonism
CSCC[C@@H]1NC(=O)[C@@H]2CSCCC(=O)N3CN(CN(C3)C(=O)CCSC[C@H](NC(=O)CCOCCOCCOCCOCCOCCn3cc(CCC(=O)NCCCC[C@H](NC(=O)[C@H](C)NC(=O)[C@@H]4CSCCC(=O)N5CN6CN(C5)C(=O)CCSC[C@H](NC(=O)[C@@H]5CCCN5C(=O)[C@H](CO)NC(=O)[C@H](Cc5ccc(O)cc5)NC(=O)[C@H](CC(C)C)NC(=O)[C@@H](NC(=O)[C@H](C)NC(C)=O)CSCCC6=O)C(=O)N[C@@H](Cc5c[nH]c6ccccc56)C(=O)N[C@@H](Cc5c[nH]cn5)C(=O)N5CCC[C@H]5C(=O)N[C@@H](CC(C)C)C(=O)N[C@@H](CC(N)=O)C(=O)N[C@@H](CC(=O)O)C(=O)N4)C(N)=O)nn3)C(=O)N3CCC[C@H]3C(=O)N[C@@H](Cc3cccc4ccccc34)C(=O)N[C@H](CC(=O)O)C(=O)N2)C(=O)CCSC[C@@H](C(N)=O)NC(=O)[C@H](Cc2c[nH]c3ccccc23)NC(=O)[C@@H]2C[C@@H](O)CN2C(=O)[C@@H]2CCCN2C(=O)[C@H]([C@@H](C)O)NC(=O)[C@H](CO)NC(=O)[C@H](Cc2c[nH]c3ccccc23)NC(=O)[C@H](CC(=O)O)NC(=O)[C@H](CCCCNC(=N)N)NC1=O [BCY12721]			potent OX40 agonism
